From ChEMBL document CHEMBL1127438, “Substituted (S)-phenylpiperidines and rigid congeners as preferential dopamine autoreceptor antagonists: synthesis and structure-activity relationships” (J Med Chem, 1994)

Legend:
[1] = target: T1, D(3) dopamine receptor (Homo sapiens, UniProt P35462); test: Tested for in vitro binding affinity against cloned mammalian dopamine D3 receptor, expressed in CHO-K1 cells, using [3H]spiperone as radioligand; assay type: cell-based
[2] = tested on: Rattus norvegicus; test: Evaluated for DOPAC level in nonpretreated habituated rats after subcuteneous dose of 100 micro mol/kg in rat striatum; assay type: functional
[3] = tested on: Rattus norvegicus; test: Evaluated biochemically in nonpretreated habituated rats for (100 uM/kg) subcuteneous dose, Value expressed as locomotor activity (LMA); assay type: functional
[4] = target: T2, D(2) dopamine receptor (Rattus norvegicus, UniProt P61169)
Description: Affinity against striatal dopamine D2 receptors using [3H]spiperone as radioligand in rats.

[5] = target: T3, D(2) dopamine receptor (Homo sapiens, UniProt P14416); test: biochemical
Description: Affinity against recombinant dopamine receptor (DA) D2 expressed in CHO-K1 cells, using [3H]-spiperone as radioligand

[6] = target: T3, D(2) dopamine receptor; test: biochemical; remark: listed apart in the source
Description: In vitro binding affinity against cloned mammalian dopamine D2 autoreceptor, expressed in CHO-K1 cells, using [3H]U-86170 as radioligand

[7] = target: T2, D(2) dopamine receptor; test: Tested for affinity against striatal dopamine autoreceptor (DA) D2 receptors using [3H]spiperone as radioligand in rats.
[8] = tested on: Rattus norvegicus; test: Evaluated biochemically in reserpine-pretreated habituated rats for (100 umol/kg) subcuteneous dose in rat striatum (DOPAacc), Value expressed as counts/30 min; assay type: functional
[9] = tested on: Rattus norvegicus; test: Evaluated biochemically in reserpine-pretreated habituated rats for (100 umol/kg) subcuteneous dose, Value expressed as locomotor activity (LMA); assay type: functional
[10] = tested on: Rattus norvegicus; test: Evaluated for DOPA accumulation (DOPAacc) level in nonhabituated rats after subcuteneous dose (100 uM/kg) in rat striatum; assay type: functional
[11] = tested on: Rattus norvegicus; test: Evaluated biochemically in nonhabituated rats for (100 umol/kg) subcuteneous dose, Value expressed as locomotor activity (LMA); assay type: functional
[12] = target: Dopamine receptor; test: Tested for in vitro binding affinity against cloned mammalian dopamine autoreceptor (DA) receptors expressed in CHO-K1 cells using [3H]U-86170 as radioligand; assay type: cell-based
[13] = target: T1, D(3) dopamine receptor; test: Tested for in vitro binding affinity against cloned mammalian dopamine autoreceptor (DA) receptors expressed in CHO-K1 cells [3H]-spiperone as radioligand; assay type: cell-based
[14] = tested on: Rattus norvegicus; test: Evaluated for biochemical levels of DOPAC in nonpretreated habituated rats for subcuteneous dose of 100 micro mol/kg in rat striatum; assay type: functional
[15] = tested on: Rattus norvegicus; test: Evaluated for locomotor activity in nonpretreated habituated rats in 100 umol/kg of subcuteneous dose; assay type: functional; set-up: unit not given here
[16] = tested on: Rattus norvegicus; test: Effect of (60 min after administration of 200 (uM/kg) subcuteneous dose on DA release in brain dialysis model of rat striatum; Values expressed as percent of saline controls; assay type: functional
[17] = tested on: Rattus norvegicus; test: Tested in vivo for its ability to displace DA receptor agonist (Di-Pr-5,6-ADTN) from rat striatal binding sites at 0.25 uM/Kg sc. dose (after subtraction of cerebellum levels); assay type: functional
[18] = species: Rattus norvegicus; test: Tested in vio for concomitant ability to antagonize the locomotor activity of rat induced by Di-Pr-5,6-ADTN, Value expressed as locomotor activity (LMA), % of control; assay type: functional; set-up: scale not given: the % may be the effect or the level left

T3 sequence (P14416 whole entry): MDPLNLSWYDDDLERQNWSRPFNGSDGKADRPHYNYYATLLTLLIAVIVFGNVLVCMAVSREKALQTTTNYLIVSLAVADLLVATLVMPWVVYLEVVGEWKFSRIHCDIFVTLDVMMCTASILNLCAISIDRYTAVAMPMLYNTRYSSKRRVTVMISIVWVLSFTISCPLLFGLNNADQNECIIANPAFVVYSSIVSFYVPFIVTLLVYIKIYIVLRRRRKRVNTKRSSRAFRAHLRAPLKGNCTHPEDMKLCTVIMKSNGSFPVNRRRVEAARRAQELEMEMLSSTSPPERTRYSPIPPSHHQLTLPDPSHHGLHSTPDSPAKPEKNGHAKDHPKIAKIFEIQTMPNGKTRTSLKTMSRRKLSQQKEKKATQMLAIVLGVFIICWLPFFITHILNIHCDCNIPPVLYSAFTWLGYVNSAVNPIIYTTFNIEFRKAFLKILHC
T1 sequence (P35462 whole entry): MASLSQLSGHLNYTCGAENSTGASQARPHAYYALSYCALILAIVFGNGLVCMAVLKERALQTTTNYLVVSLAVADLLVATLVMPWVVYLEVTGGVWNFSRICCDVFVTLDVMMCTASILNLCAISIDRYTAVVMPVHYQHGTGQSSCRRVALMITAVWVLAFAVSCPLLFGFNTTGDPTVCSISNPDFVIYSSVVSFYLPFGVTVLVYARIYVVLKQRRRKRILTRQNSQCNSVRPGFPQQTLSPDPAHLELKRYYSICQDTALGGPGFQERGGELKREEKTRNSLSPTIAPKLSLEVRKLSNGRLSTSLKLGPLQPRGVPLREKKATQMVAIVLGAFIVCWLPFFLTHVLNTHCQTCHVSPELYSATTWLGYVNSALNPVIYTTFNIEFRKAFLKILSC
T2 sequence (P61169 whole entry): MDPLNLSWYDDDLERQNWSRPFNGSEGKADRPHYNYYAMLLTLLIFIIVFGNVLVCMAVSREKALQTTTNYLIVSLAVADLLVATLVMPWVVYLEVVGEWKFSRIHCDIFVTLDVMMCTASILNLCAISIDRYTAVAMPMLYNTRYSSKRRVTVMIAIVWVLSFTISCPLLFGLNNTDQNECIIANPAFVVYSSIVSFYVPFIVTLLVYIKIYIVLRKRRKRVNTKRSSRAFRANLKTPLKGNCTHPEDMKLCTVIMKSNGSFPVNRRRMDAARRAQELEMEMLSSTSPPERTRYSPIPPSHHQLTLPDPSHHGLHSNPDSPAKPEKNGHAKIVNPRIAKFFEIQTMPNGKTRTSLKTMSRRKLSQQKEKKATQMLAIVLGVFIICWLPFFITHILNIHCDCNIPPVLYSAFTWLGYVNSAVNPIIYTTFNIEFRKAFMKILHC

Structure (SMILES)	Ki [1]	Activity [2]	Control [3]	Ki [4]	Ki [5]	Ki [6]	Activity [8]	Activity [16]	further results
CCCN1CCC[C@@H](c2cccc(C(=O)OC)c2)C1	> 1.28 µM	140%	297%	2.17 µM	> 0.217 µM	> 1.85 µM			
CN1CCC[C@@H](c2cccc(OS(=O)(=O)C(F)(F)F)c2)C1					> 0.217 µM				Ki [7]: 11.8 µM
C=CCN1CCC2c3cccc(C#N)c3CCC21 (centres undefined)	> 0.455 µM	172%	292%	> 0.172 µM		0.984 µM			
CCCCN1CCC[C@@H](c2cccc(C#N)c2)C1		257%	1382%	0.617 µM	> 0.217 µM		71%		Control [9]: 12%
CCCN1CCC[C@@H](c2cccc(CC#N)c2)C1	0.509 µM	302%	887%	1.23 µM	> 0.217 µM	0.069 µM	57%		Activity [10]: 207%; Locomotor activity (% of control) [11]: 147%; Control [9]: 16%
CCCN1CCC[C@@H](c2cccc(C(N)=O)c2)C1	> 1.28 µM	114%	203%	> 15 µM	> 0.217 µM	> 1.85 µM	97%		
CCCN1CCC[C@@H](c2ccc(OS(=O)(=O)C(F)(F)F)c(OS(=O)(=O)C(F)(F)F)c2)C1					> 0.217 µM				Ki [12]: 1.1 µM; Ki [13]: 0.338 µM; Activity [14]: 96%; LMA [15]: 36
CCCN1CCC[C@@H](c2cccc(-c3ccsc3)c2)C1	0.078 µM	88%	229%	0.76 µM	> 0.217 µM	0.134 µM		106%	
C=CCN1CCC2c3cccc(C(N)=O)c3CCC21 (centres undefined)	> 1.5 µM			> 0.172 µM	> 0.217 µM	> 1.5 µM			
CCCN[C@@H]1CCc2c(OC)cccc2[C@@H]1C		346%	354%						
C=CCN1CC[C@@H]2c3cccc(OS(=O)(=O)C(F)(F)F)c3CC[C@@H]21 (stereo in doubt; 49)					> 0.217 µM				Ki [12]: 0.353 µM; Ki [13]: 0.173 µM; Ki [7]: > 0.172 µM; Activity [14]: 108%; LMA [15]: 116
CCN1CCC[C@@H](c2cccc(C#N)c2)C1	0.514 µM	264%	351%	2.33 µM	> 0.217 µM	0.235 µM		212%	Activity [10]: 318%; Locomotor activity (% of control) [11]: 113%
CCCN1CCC[C@@H](c2cccc(O)c2)C1 [PRECLAMOL]		203%	119%				25%	190	Activity [10]: 141; Locomotor activity (% of control) [11]: 40%; Control [9]: 12%
CCCN1CCC[C@@H](c2cccc(S(C)(=O)=O)c2)C1	1.3 µM	250%	368%	6.27 µM	> 0.217 µM	0.447 µM	95%	293%	Activity [10]: 319%; Control [17]: 45%; Locomotor activity (% of control) [11]: 135%; Control [9]: 10%; Control [18]: 101%
CCCN1CCCC2c3cccc(OS(=O)(=O)C(F)(F)F)c3CCC21 (stereo in doubt; 45)									Ki [12]: 0.744 µM; Ki [13]: 0.587 µM; Ki [7]: > 0.453 µM; Activity [14]: 94%; LMA [15]: 266
CCCN1CCC[C@@H](c2cccc(S(=O)(=O)N(C)C)c2)C1	0.17 µM	355%	548%	3.39 µM				220%	
